Reference: US7214671B2, “Use of 2-methylene-19-nor-20(S)-1α,25-dihydroxyvitamin D3 for the prophylaxis of bone diseases” (Wisconsin Alumni Research Foundation, priority 2004, dated 2007)
Values joined by “and” are separate entries in the source; they are usually repeats but may differ in a detail not shown here. Equal values may be shown once. “Also recorded” adds a separate entry of the source.

Tests used:
[1] = tested on: HL-60 promyelocytic cells; assay: HL-60 cell differentiation into monocytes; format: cell-based; conditions: FIG. 5
Description: The differentiation of HL-60 promyelocytic cells into monocytes was determined as described by Ostrem et al. (J. Biol. Chem. 262, 14164–14171, 1987).

[2] = tested on: ovariectomized old female rats; assay: Treatment of ovariectomized old female rats (bone mass, serum calcium, femur ash); format: in vivo, rat; conditions: doses of Table 1
Source text: Values in the figure are mean±standard error.

[3] = tested on: mobilization of bone calcium; assay: Bone calcium mobilization (serum calcium) in vitamin D-deficient rats; format: in vivo, rat; conditions: serum calcium 24 hours after last dose, zero calcium diet, FIG. 3
Description: Blood serum calcium was measured 24 hours following the last dose in the rats as described in FIG. 2. Values represent mean±standard error.
(§1) The intestinal calcium transport and bone mobilization studies were carried out as described by Sicinski et al. (J. Med. Chem. 41, 4662–4674, 1998) and Suda et al. (J. Nutr. 100, 1049–1052, 1970).
The in vivo tests of increasing serum calcium of rats on a zero calcium diet provides an insight to […] or bone activity of 2MD.

Rhesus monkeys = assay: Serum calcium after single oral bolus dose in Rhesus monkeys; format: in vivo, Rhesus monkey; parameters: dose or concentration left out as unconfirmed; conditions: 24 hours after dose, FIG. 10
Description: FIG. 10 is a line graph illustrating the blood serum calcium levels 24 hours after dose in Rhesus monkeys given a single oral bolus dose of 2-methylene-19-nor-20(S)-1α,25-dihydroxyvitamin D3 (2MD) at varying concentrations;
These and other tests indicate that primates will tolerate 2MD extremely well which may give a very large window between efficacy and the danger of hypercalcemia in man.

[4] = tested on: intestinal calcium transport; assay: Intestinal calcium transport in vitamin D-deficient rats (everted gut sac); format: in vivo, rat; conditions: oral gavage 7 consecutive days, FIG. 2
Description: Values represent means±standard error.
as §1

[5] = biological target: T1, full length recombinant rat receptor (nuclear vitamin D receptor) (Rattus norvegicus, UniProt P13053); assay: Competitive binding of [3H]-1α,25-(OH)2-D3 to full length recombinant rat vitamin D receptor; conditions: FIG. 1
T1 construct: the full length recombinant rat receptor
T1 sequence (P13053 1-423): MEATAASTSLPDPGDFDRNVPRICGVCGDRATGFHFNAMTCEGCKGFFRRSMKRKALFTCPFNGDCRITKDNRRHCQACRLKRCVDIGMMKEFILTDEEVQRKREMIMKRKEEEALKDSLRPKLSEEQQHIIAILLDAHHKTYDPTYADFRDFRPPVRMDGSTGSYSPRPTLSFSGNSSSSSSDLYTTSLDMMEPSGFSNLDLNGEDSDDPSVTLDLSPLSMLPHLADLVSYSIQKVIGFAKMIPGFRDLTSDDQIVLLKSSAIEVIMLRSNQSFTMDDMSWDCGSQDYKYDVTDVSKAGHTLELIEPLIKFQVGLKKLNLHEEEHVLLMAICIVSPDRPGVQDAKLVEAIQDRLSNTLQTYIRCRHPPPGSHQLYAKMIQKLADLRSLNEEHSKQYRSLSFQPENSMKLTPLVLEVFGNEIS

[6] = tested on: normal adult female Sprague-Dawley rats; assay: Building bone mass in normal adult female rats (BMD, body weight, serum calcium); format: in vivo, rat; conditions: 2.5 ng/kg/d oral
Description: All 7-month old, nulliparous female, Sprague-Dawley rats (Harlan Sprague-Dawley, Madison, Wis.) were sham-operated at 7 months of age.
Beginning with arrival in the facility, rats were fed a purified rodent diet (“Diet 11”) prepared in-house (Suda et al, 1970, J. Nutr., 100:1049–1052) and containing 0.47% calcium, 0.3% phosphorus and 1.6 IU vitamin D3/g. To maintain consistent body weights (monitored weekly), rats were fed a total of 150 g diet/week, i.e. 21.5 g/day/rat.
Rats were dosed daily beginning 5–6 weeks post-surgery. Neobee oil (vehicle) or 2MD were delivered to the back of the tongue in 100 μL. The dosing solution concentrations were adjusted monthly based on group-average body weights.
At predose and at 1, 2, 4, 6, 10, 11, 18 and 25 weeks after dose, blood was collected 24 hr. after the most recent dose from the tail artery of ether-anesthetized rats. Serum was diluted in 0.1% lanthum chloride and the concentration of calcium determined by atomic absorption spectrometry. The values shown are averages for all rats, and include standard errors.
Both total body BMD and appendicular (right distal and proximal femur) BMD were determined by dual-energy X-ray absorptiometry (Lunar DPXα-Madison, Wis.; Small Animal Software-version 1.0e) at weeks 0, 8, 16, and 24. Appendicular BMD was performed as described (Haffa et al, 2000, J. Bone Min. Res. 15:872). The values shown are averages for all rats and include standard errors.

For `C=C1[C@H](O)CC(=C/C=C2\CCC[C@]3(C)[C@@H]([C@@H](C)CCCC(C)(C)O)CC[C@@H]23)C[C@H]1O` [2MD, 2-methylene-19-nor-20(S)-1α,25-dihydroxyvitamin D3], the “potency relative to 1,25(OH)2D3 on HL-60 cell differentiation” value [1] was 10–50 times, the “change in serum calcium at dosage levels that elevated bone mass” value [2] was “no change in serum calcium” and the “potency relative to 1,25(OH)2D3 in mobilization of bone calcium” value [3] was 100 times and 80–100 times. For the same molecule, the “elevation of serum calcium concentration” value (Rhesus monkeys) was “does not cause significant elevation”, the “intestinal calcium transport activity compared with 1,25(OH)2D3” value [4] was “activity similar to that of 1,25-dihydroxyvitamin D3; also recorded: approximately equal” and the “binding to the receptor as compared to the standard 1,25-(OH)2D3” value [5] was “bound equally well; also recorded: about as active as 1,25(OH)2D3”. For the same molecule, the “increase in cancellous bone BMD” value ([6]; 24 weeks, FIG. 12A) was 14%, the “increase in cortical bone” value ([6]; FIG. 12B) was 6% and the “change in body weight” value ([6]; FIG. 13A) was “absence of any change”. For the same molecule, the “change in serum calcium” value ([6]; FIG. 13B) was “absence of any change” and the “total body BMD versus vehicle control” value ([6]; from 8 to 24 weeks, FIG. 11) was “increased above vehicle-control animals”.
